Data on 20 compounds can be found in ChEMBL document CHEMBL1153074, “Novel, achiral aminoheterocycles as selective monoamine reuptake inhibitors” (Bioorg Med Chem Lett, 2009).

The target in data set [1] is Sodium-dependent dopamine transporter (Homo sapiens, UniProt Q01959).
For data set [2], the target named is Sodium-dependent noradrenaline transporter (Homo sapiens, UniProt P23975).
Data set [3] addresses Sodium-dependent serotonin transporter (Homo sapiens, UniProt P31645).
A further data set concerns the target hERG (KCNH2) (Homo sapiens, UniProt Q12809). In words: in vitro. To be noted: CHO cells expressing human ERG.
Another data set deals with CYP3A4 (Homo sapiens, UniProt P08684). In words: in vitro.
Chain of CYP3A4 (P08684 whole entry): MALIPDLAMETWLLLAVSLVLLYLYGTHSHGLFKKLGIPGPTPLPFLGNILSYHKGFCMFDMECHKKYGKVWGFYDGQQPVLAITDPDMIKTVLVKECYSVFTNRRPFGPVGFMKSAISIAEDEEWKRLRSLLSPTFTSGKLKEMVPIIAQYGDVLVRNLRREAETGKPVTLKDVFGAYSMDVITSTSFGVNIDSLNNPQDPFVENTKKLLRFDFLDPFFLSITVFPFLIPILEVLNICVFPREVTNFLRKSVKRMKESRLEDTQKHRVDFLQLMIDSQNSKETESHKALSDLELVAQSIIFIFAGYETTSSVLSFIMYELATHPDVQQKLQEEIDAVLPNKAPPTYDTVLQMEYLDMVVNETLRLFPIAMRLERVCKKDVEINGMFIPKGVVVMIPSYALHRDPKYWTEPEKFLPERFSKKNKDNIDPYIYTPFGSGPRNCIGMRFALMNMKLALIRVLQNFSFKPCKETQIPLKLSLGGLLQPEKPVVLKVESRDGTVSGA
A further data set has as its target CYP2D6 (Homo sapiens, UniProt P10635). In words: in vitro.
The nature of data set [4]: in vitro. To be noted: human, liver microsomes. (Microsomes from liver hold many membrane-bound enzymes, among them those of drug oxidation.)
Description: Intrinsic clearance in human liver microsomes
The nature of data set [5]: in vitro. Conditions: human, Caco-2.
Description: Efflux ratio of apparent permeability from basolateral to apical side to apical to basolateral side in human Caco-2 cells at 10 uM after 21 days
Data set [6] is described as follows: in vitro. Conditions: human, Caco-2. The source holds these as a separate data set.
Description: (§1) Apparent permeability from apical to basolateral side of human Caco-2 cells at 10 uM after 21 days
The nature of data set [7]: in vitro. Conditions: human, Caco-2. The source holds these as a separate data set.
Description: (§2) Apparent permeability from basolateral to apical side of human Caco-2 cells at 10 uM after 21 days
In data set [8] the test system is Caco-2. Conditions: human, caco-2, 10 µM.
Description: as §1
In data set [9] the test system is Caco-2. Conditions: human, caco-2, 10 µM. This is another data set of the same source.
Description: as §2
For another data set, the target named is Cytochrome P450 3A4 (Homo sapiens, UniProt P08684). In words: Inhibition of CYP3A4 in human liver microsomes after 25 mins. Type of data set: ADME, Microsome. Conditions: TDE = time-dependent effect.
Chain of Cytochrome P450 3A4 (P08684 whole entry): as above

Chain of Sodium-dependent noradrenaline transporter (P23975 whole entry): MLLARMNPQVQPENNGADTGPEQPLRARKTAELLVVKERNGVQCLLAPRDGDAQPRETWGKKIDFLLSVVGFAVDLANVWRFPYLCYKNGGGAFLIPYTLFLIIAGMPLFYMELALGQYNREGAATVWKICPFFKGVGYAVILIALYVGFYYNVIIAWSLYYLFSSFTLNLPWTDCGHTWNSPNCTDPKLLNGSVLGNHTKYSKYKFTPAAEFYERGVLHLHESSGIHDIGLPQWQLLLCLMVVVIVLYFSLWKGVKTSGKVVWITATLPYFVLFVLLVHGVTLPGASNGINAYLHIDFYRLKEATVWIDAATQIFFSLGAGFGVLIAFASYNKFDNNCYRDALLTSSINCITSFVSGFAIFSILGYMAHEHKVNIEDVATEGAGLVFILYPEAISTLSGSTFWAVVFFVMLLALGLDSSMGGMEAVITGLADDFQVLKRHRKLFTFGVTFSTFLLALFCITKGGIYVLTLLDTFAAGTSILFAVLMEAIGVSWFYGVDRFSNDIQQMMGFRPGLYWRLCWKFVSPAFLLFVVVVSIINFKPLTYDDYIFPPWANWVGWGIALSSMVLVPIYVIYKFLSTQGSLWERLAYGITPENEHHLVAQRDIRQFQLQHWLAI
Chain of Sodium-dependent dopamine transporter (Q01959 whole entry): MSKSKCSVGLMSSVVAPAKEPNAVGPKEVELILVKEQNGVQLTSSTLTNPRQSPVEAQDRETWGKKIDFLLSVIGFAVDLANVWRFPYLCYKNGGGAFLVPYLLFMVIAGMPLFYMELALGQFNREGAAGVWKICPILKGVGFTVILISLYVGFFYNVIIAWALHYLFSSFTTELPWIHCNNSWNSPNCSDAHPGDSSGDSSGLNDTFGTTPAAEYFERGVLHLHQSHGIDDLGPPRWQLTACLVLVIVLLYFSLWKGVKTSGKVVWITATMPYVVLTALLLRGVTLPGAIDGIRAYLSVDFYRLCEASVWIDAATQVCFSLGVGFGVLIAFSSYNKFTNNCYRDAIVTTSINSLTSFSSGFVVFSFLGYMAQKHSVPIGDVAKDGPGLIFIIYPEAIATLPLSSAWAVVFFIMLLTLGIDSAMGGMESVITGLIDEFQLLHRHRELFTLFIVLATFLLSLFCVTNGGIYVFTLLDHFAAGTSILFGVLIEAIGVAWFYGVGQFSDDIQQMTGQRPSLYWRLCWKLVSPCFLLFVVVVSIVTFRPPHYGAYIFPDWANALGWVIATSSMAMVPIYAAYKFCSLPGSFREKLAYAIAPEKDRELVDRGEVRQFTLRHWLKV
Chain of Sodium-dependent serotonin transporter (P31645 whole entry): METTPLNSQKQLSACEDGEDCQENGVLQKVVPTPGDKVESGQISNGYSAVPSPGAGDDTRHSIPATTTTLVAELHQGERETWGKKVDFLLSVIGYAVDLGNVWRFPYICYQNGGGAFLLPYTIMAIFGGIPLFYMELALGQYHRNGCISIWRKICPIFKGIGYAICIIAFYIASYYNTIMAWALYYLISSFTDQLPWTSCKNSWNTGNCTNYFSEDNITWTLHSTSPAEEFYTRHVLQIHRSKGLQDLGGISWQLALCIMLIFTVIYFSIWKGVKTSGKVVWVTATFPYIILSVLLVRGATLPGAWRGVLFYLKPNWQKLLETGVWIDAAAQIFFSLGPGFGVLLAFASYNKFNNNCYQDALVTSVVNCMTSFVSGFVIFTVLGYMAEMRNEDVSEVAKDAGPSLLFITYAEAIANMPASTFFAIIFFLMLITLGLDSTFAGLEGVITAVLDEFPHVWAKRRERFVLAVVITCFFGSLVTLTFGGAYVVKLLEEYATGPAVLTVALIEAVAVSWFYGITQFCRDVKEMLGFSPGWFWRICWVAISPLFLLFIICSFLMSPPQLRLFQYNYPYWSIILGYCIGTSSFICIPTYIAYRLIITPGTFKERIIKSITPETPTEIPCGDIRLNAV
Chain of hERG (KCNH2) (Q12809 whole entry): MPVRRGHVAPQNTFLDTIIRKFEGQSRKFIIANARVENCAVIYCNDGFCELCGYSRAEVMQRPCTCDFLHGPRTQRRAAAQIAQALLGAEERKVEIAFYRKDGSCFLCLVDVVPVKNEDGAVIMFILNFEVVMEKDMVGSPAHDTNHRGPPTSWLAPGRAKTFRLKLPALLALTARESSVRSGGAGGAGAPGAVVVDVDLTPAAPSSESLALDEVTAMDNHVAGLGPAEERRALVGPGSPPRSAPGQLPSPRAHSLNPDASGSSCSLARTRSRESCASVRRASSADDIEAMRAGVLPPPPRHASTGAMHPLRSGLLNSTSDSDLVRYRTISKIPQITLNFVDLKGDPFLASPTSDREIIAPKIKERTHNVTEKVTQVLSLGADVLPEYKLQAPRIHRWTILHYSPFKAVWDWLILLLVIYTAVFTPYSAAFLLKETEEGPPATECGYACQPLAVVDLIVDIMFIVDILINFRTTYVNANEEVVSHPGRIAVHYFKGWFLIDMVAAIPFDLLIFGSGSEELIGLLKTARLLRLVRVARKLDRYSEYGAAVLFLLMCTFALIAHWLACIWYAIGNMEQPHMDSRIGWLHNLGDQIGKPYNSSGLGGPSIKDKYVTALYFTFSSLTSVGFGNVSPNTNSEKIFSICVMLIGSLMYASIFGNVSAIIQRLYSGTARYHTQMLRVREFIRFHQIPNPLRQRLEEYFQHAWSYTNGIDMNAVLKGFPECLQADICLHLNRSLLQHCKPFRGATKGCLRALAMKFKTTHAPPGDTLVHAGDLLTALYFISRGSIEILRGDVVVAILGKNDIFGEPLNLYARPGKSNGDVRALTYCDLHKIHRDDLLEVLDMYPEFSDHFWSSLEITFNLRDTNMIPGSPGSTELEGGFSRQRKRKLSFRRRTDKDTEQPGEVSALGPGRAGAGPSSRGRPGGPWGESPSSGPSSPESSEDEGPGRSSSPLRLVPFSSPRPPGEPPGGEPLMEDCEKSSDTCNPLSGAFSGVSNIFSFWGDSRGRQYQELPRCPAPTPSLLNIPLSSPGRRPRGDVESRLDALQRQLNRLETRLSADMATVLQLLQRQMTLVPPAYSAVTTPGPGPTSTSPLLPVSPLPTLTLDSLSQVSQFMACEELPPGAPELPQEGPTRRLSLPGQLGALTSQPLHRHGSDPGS
Chain of CYP2D6 (P10635 whole entry): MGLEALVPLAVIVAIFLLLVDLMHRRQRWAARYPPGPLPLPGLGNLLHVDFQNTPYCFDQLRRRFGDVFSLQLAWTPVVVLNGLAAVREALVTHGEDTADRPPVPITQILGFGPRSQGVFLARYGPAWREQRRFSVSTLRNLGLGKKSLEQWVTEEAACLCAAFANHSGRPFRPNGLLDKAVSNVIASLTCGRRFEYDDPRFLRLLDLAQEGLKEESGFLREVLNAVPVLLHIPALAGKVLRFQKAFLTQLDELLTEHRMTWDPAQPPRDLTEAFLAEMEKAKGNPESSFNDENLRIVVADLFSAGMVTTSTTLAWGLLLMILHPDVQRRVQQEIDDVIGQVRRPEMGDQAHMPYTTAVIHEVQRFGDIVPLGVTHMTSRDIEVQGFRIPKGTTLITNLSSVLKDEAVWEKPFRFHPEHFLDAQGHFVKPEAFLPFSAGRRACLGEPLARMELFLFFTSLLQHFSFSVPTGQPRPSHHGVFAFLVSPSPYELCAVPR
Description for CYP2D6: Inhibition of CYP2D6 by fluorescence assay
Description for CYP3A4: Inhibition of CYP3A4 by fluorescence assay
Description for hERG (KCNH2): Inhibition of human ERG expressed in CHO cells

As a reminder, the Ki is the dissociation constant of the complex between target and ligand, obtained from inhibition or displacement. Read a low Ki as tighter binding. On to `N#Cc1ccccc1CN(c1ccc2[nH]ccc2c1)C1CCNCC1`, for which the results for the Ki in data set [1], in data set [2] and in [3] were 501 nM, 6.31 nM and 3.98 nM, respectively.

One may read the IC20 as the point of the concentration-response curve where the effect stands at 20%. Read a low IC20 as greater potency. Take `COc1cccc(CN(c2ccc3[nH]ccc3c2)C2CCNCC2)c1`: the inhibition constant (Ki) is 79.4 nM in data set [1], 3.98 nM in data set [2] and 1.58 nM in [3]. The concentration for an effect of 20% (IC20) against hERG (KCNH2) is 1000 nM.

As to `CNCCN(c1ccccc1)c1ccc2[nH]ccc2c1`, the IC20 at CYP3A4 worked out at 2000 nM; at CYP2D6 it was 40000 nM. In addition, the values for the Ki in data set [1], in data set [2] and in data set [3] were 501 nM, 200 nM and 398 nM, respectively.

The microsomal CLint is a measure of how fast metabolising enzymes remove a compound, apart from limits set by blood flow. High values mean rapid turnover, low ones slow turnover. For the compound `c1ccc(CN(c2ccc3[nH]ccc3c2)C2CCNC2)cc1` (stereo unspecified), the IC20 against CYP3A4 is 2000 nM; on hERG (KCNH2) it was under 1000 nM; at CYP2D6, 2000 nM. Further, the results for the inhibition constant (Ki) in data set [1], in data set [2] and in [3] were 31.6 nM, 10 nM and 20 nM, respectively. The intrinsic metabolic clearance (microsomal CLint) in “in vitro [4]” was 36 µL/min/mg.

With `Fc1ccc(CN(c2ccc3[nH]ccc3c2)C2CCNCC2)cc1`, the Ki is 251 nM in data set [1], 251 nM in [2] and 2 nM in data set [3].

In general, efflux ratio refers to the permeability from basolateral to apical divided by that in the opposite direction, in the common usage. By Papp A→B is commonly meant how fast a substance crosses the layer from the apical side. High values mean ready permeation, low ones poor permeation. One may read the Papp B→A as how fast a substance crosses the layer from the basolateral side. With `NS(=O)(=O)c1cccc(CN(c2ccc3[nH]ccc3c2)C2CCNCC2)c1`, the efflux ratio at 10 µM in the data set “in vitro [5]” came out at 4.2. For the same compound, the figures for the concentration for an effect of 20% (IC20) at CYP3A4, at hERG (KCNH2) and against CYP2D6 were 2000 nM, over 10000 nM and 3000 nM, respectively. In the data set “in vitro [6]”, this compound showed an apical-to-basolateral permeability (Papp A→B) at 10 µM of 0.7 ×10⁻⁶ cm/s. In “in vitro [7]”, this compound yielded a Papp B→A at 10 µM of 3 ×10⁻⁶ cm/s. Besides, the inhibition constant Ki was 25.1 nM in data set [1], 79.4 nM in [2] and 6.31 nM in [3]. In “in vitro [4]”, the intrinsic clearance (microsomal CLint) was determined as 2 µL/min/mg.

One may read the Papp as the rate of passage across a membrane or cell layer, normalised by area and donor concentration. Low readings indicate poor permeation, high ones ready permeation. As for `Cn1ccc2cc(N(Cc3ccccc3)C3CCNCC3)ccc21`, the IC20 against CYP3A4 is 5000 nM; against hERG (KCNH2), 5100 nM; at CYP2D6, over 50000 nM. Also, the figures for the Papp in the data set with Caco-2 [8] and with Caco-2 [9] were 7 ×10⁻⁶ cm/s and 4 ×10⁻⁶ cm/s, respectively. Besides, the figures for the Ki in [1], in data set [2] and in [3] were 79.4 nM, 25.1 nM and 3.98 nM, respectively. Besides, the intrinsic metabolic clearance (microsomal CLint) in the data set “in vitro [4]” was found to be 26 µL/min/mg.

With `CNCCC(c1ccccc1)c1ccc2[nH]ccc2c1` (stereo unspecified), the 20% effect concentration (IC20) was 3000 nM at CYP3A4, under 1000 nM at hERG (KCNH2) and 5000 nM on CYP2D6. Moreover, the Ki in [1] is 200 nM; in data set [3], 31.6 nM. Also, the microsomal CLint in “in vitro [4]” is 11 µL/min/mg.

As to `c1ccc(CN(c2ccc3sccc3c2)C2CCNCC2)cc1`, the IC20 was 19000 nM against CYP3A4, 1000 nM against hERG (KCNH2) and 35000 nM on CYP2D6. For the same compound, the Papp in the data set with Caco-2 [8] stood at 1.4 ×10⁻⁶ cm/s; with Caco-2 [9], 0.1 ×10⁻⁶ cm/s. For the same compound, the Ki was 200 nM in data set [1], 200 nM in [2] and 12.6 nM in data set [3]. In the data set “in vitro [4]”, this compound registered a microsomal CLint of 18 µL/min/mg.

As to `Fc1ccccc1CN(c1ccc2[nH]ccc2c1)C1CCNCC1`, the inhibition constant Ki in [1] is 126 nM; in data set [2], 12.6 nM; in [3], 3.98 nM.

In the case of `c1ccc(N(c2ccc3[nH]ccc3c2)C2CCNCC2)cc1`, the IC20 came to 26000 nM at CYP3A4 and 14000 nM against CYP2D6. The Ki was over 1580 nM in [1], 1260 nM in data set [2] and 1000 nM in data set [3].

`c1ccc(CN(c2ccc3[nH]ccc3c2)C2CCNCC2)cc1`: the IC20 against CYP3A4 is 100 nM; on hERG (KCNH2), 1000 nM; at CYP2D6, 3000 nM. For the same compound, the Papp A→B at 10 µM in the data set “in vitro [6]” came to 6 ×10⁻⁶ cm/s. This compound also yielded an apparent permeability from basolateral to apical (Papp B→A) at 10 µM in “in vitro [7]” of 6 ×10⁻⁶ cm/s. Also, the “inhibition (INH)” value against Cytochrome P450 3A4 is “tde”. Further, the microsomal CLint in the data set “in vitro [4]” was 17 µL/min/mg.

In the case of `c1ccc(CN(c2ccc3[nH]ccc3c2)C2CCCNC2)cc1` (stereo unspecified), the 20% effect concentration (IC20) is 300 nM against CYP3A4, under 1000 nM at hERG (KCNH2) and 5000 nM against CYP2D6. In addition, the Ki in [1] was 39.8 nM; in data set [2], 63.1 nM; in data set [3], 6.31 nM. In the data set “in vitro [4]”, this compound gave a microsomal CLint of 23 µL/min/mg.

In the case of `c1ccc(CN(c2ccc3[nH]ncc3c2)C2CCNCC2)cc1`, the IC20 was 500 nM against CYP3A4, under 1000 nM against hERG (KCNH2) and 400 nM against CYP2D6. Moreover, the inhibitory constant (Ki) is 50.1 nM in data set [1], 15.8 nM in data set [2] and 1.26 nM in [3].

For the compound `CC(c1ccccc1)N(c1ccc2[nH]ccc2c1)C1CCNCC1` (stereo unspecified), the Ki in [1] was 1580 nM; in [2], 1580 nM; in data set [3], 39.8 nM.

As for `Fc1cccc(CN(c2ccc3[nH]ccc3c2)C2CCNCC2)c1`, the results for the Ki in [1], in data set [2] and in data set [3] were 79.4 nM, 12.6 nM and 1.26 nM, respectively.

For `N#Cc1ccc(CN(c2ccc3[nH]ccc3c2)C2CCNCC2)cc1`, the Ki in data set [1] was 794 nM; in [2], 1000 nM; in data set [3], 2.51 nM.

As to `c1ccc(CCN(c2ccc3[nH]ccc3c2)C2CCNCC2)cc1`, the inhibition constant Ki in data set [1] is 158 nM; in data set [2], 50.1 nM; in data set [3], 6.31 nM.

Consider `N#Cc1cccc(CN(c2ccc3[nH]ccc3c2)C2CCNCC2)c1`, for which the efflux ratio at 10 µM in “in vitro [5]” is 3.6. For the same compound, the results for the concentration for an effect of 20% (IC20) against CYP3A4, against hERG (KCNH2) and at CYP2D6 were 2000 nM, under 1000 nM and 500 nM, respectively. Besides, in the data set “in vitro [6]”, the apical-to-basolateral permeability (Papp A→B) at 10 µM was 4 ×10⁻⁶ cm/s. In the data set “in vitro [7]”, this compound displayed a Papp B→A at 10 µM of 14 ×10⁻⁶ cm/s. Moreover, the Ki in data set [1] was 31.6 nM; in [2], 10 nM; in data set [3], 0.251 nM. In the data set “in vitro [4]”, this compound came in with an intrinsic clearance (microsomal CLint) of 13 µL/min/mg.

On to `c1cc2cc(N(CC3CCOCC3)C3CCNCC3)ccc2[nH]1`, for which the 20% effect concentration (IC20) is over 50000 nM at CYP3A4 and 27000 nM against CYP2D6. Moreover, the Ki in data set [1] was 501 nM; in [2], 39.8 nM; in [3] it was 39.8 nM.
